This passage reports Ki and EC50 results from ChEMBL document CHEMBL1159077, “Discovery and SAR of substituted 3-oxoisoindoline-4-carboxamides as potent inhibitors of poly(ADP-ribose) polymerase (PARP) for the treatment of cancer” (Bioorg Med Chem Lett, 2010).

Molecules are shown by their SMILES.

Assay [1] has as its target T1, Poly [ADP-ribose] polymerase 1 (Homo sapiens, UniProt P09874). Nature of the assay: Inhibition of PARP1 by microplate scintillation counting.
In assay [2] the target is T1, Poly [ADP-ribose] polymerase 1. Nature of the assay: Inhibition of PARP1 in human C41 cells. The class given is cell-based.

T1 sequence (P09874 whole entry): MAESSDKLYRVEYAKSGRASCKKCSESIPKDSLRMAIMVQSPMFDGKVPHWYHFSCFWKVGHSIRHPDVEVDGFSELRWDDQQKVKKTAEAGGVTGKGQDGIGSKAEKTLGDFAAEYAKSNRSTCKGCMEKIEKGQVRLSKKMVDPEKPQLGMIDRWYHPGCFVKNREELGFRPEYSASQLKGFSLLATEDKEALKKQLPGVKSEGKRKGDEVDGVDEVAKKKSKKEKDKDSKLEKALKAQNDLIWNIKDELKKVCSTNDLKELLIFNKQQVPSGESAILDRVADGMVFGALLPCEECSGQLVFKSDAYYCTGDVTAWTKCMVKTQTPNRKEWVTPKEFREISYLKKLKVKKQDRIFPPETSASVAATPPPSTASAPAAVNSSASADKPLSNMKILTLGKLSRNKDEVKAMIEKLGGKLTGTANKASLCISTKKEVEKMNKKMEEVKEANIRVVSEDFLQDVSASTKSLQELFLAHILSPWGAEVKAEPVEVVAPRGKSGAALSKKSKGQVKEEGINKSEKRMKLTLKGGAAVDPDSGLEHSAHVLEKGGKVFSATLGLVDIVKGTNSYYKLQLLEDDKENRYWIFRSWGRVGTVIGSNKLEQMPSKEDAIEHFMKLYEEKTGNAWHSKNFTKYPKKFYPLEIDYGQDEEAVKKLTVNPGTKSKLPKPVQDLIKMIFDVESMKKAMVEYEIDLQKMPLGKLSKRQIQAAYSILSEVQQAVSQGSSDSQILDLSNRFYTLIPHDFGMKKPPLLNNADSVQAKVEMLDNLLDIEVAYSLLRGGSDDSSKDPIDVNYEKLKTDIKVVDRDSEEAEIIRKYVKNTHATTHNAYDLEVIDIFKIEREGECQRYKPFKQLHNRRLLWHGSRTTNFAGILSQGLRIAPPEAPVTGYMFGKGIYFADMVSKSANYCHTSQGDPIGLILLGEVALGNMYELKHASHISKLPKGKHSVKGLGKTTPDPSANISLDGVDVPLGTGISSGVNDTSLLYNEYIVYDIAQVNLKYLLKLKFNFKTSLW

Usually Ki stands for the equilibrium dissociation constant of an inhibitor or competing ligand from its target. A higher Ki goes with weaker binding. `NC(=O)c1cccc2c1C(=O)N(CC1CCCNC1)C2` (stereo unspecified) registered an inhibition constant Ki in assay [1] of 164 nM.
Molecule `Cc1cccc(N2Cc3cccc(C(N)=O)c3C2=O)c1` displayed an inhibition constant Ki in assay [1] of 261 nM.
The term EC50 denotes the concentration giving half of the maximal effect. `CN1CCN(c2ccc(N3Cc4cccc(C(N)=O)c4C3=O)cc2)CC1` yielded an inhibition constant Ki in assay [1] of 48 nM. The EC50 in assay [2] stood at 22 nM.
Turning to `NC(=O)c1cccc2c1C(=O)N(C1CCNC1)C2` (stereo unspecified), the Ki in assay [1] was 59 nM. Moreover, the EC50 in assay [2] was 160 nM.
The like results for `NC(=O)c1cccc2c1C(=O)N(c1ccc(CN3CCCC3)cc1)C2` were, in that order, 53 nM and 53 nM.
Take `NC(=O)c1cccc2c1C(=O)N(Cc1cccnc1)C2`: in assay [1], the inhibition constant (Ki) was above 9500 nM.
Still for that read-out and setting: in the case of `NC(=O)c1cccc2c1C(=O)N(c1cccc(CN3CCCC3)c1)C2` it was 391 nM.
`NC(=O)c1cccc2c1C(=O)N(C1CCCCC1)C2` came in with a Ki in assay [1] of 172 nM. This molecule also came in with an EC50 in assay [2] above 1000 nM.
Consider `CN(C)c1ccc(N2Cc3cccc(C(N)=O)c3C2=O)cc1`, for which the Ki in assay [1] was 70 nM. Moreover, in assay [2], the concentration for a half-maximal effect (EC50) is 372 nM.
In assay [1], `CN1Cc2cccc(C(N)=O)c2C1=O` returned a Ki of 123 nM.
For `NC(=O)c1cccc2c1C(=O)N(C1CCNCC1)C2`, the Ki in assay [1] is 33 nM. The molecule also yielded an EC50 in assay [2] of 51 nM.
The corresponding values for `NC(=O)c1cccc2c1C(=O)N(CC1CCCN1)C2` (stereo unspecified) are 377 nM and 374 nM.
In assay [1], `NC(=O)c1cccc2c1C(=O)N(c1ccc(C3CCNCC3)cc1)C2` showed an inhibitory constant (Ki) of 32 nM. Besides, in assay [2], the half-maximal effective concentration (EC50) turned out to be 120 nM.
In assay [1], `NC(=O)c1cccc2c1C(=O)N(CC1CCNCC1)C2` displayed a Ki of 384 nM.
Same read-out and setting: in the case of `NC(=O)c1cccc2c1C(=O)N(c1cccc(C3CCNCC3)c1)C2` it was 314 nM.
In assay [1], `CC(C)CN1Cc2cccc(C(N)=O)c2C1=O` showed an inhibition constant Ki of 112 nM. The molecule also gave a concentration for a half-maximal effect (EC50) in assay [2] above 1000 nM.
Turning to `NC(=O)c1cccc2c1C(=O)N(C1CCCNC1)C2` (stereo unspecified), the Ki in assay [1] is 140 nM.
